Our source for the IC50 and EC50 values is patent publication US10344026B2, “Compositions and methods of targeting mutant K-ras” (NANTBIO, INC., priority 2017, dated 2019).

Type in all cases: cell-based
The test system of test [1] is Panc1-G12D. Put plainly: Viability assay (CellTiterBlue, 72 hr) Panc1. To be noted: Homo sapiens, PANC-1, GI50, CellTiterBlue, read-out: 72 hr Cell Viability Panc1 (G12D). How it is done:
(§1) Viability assays were performed on exemplary compounds and Table 2 below lists exemplary results for selected compounds tested on K-Ras wild type cell lines (Ishikawa, U87-MG, HCC827, and A375) and various K-Ras mutant cell lines (Panc1-G12D; Panc10.05-G12D; HCT116-G31D). Results are expressed in μM and corresponding structures are shown in FIGS. 2A-2G and Examples 1-152, above.
(§2) Cells are counted and seeded at 1000 cells/36 ul medium/well into 384-well microplates. Cells are returned to 37° C. CO2 incubator for 18 hr. Drug is made as 200× in DMSO and diluted into medium to 10×. To each well is added 4 ul 10× drug, and plates are returned to the incubator. Final assay DMSO concentration is 0.5%. After 72 hr, 8 ul CellTiterBlue (Promega) is added to each well. After 3 hr, fluorescence (Ex550/Em590) is determined on the Victor Plate Reader (Perkin Elmer). Assay range is determined by DMSO control (100% viability) and 100 uM tamoxifen (0% viability). GI50 values are calculated using Graphpad Prism.
(Resazurin is reduced to fluorescent resorufin, in cell work by metabolically active cells.)

Test [2] concerns phospho-Akt in Panc1 (G12D). Put plainly: In-Cell Western phospho-Akt, Panc1. To be noted: Homo sapiens, PANC-1, 1 h; Panc1, one hour treatment; read-out: In-Cell Western Panc1 (G12D) Akt (P). As to the method:
(§3) In-cell phosphorylation assays for Erk and Akt were performed on several of the compounds and exemplary results are shown in Table 3 below using HCC827 and A375 cell lines for wild type K-Ras and Panc1 and Panc10.05 cell lines for G12D K-Ras mutants. Results are expressed in μM and corresponding structures are shown in FIGS. 2A-2G and Examples 1-152, above.
(§4) Cells are seeded in complete medium into black sided, clear-bottom 384-well microplates at 3000 cells/[…]/well. Plates are returned to 37° C. CO2 incubator for 18 hr. Drug is made as 200× in DMSO and diluted into medium to 10×. To each well is added 4 ul 10× test article or controls, and plates are returned to the incubator. Final assay DMSO concentration is 0.5%. After one hour, cells are fixed in formaldehyde, rinsed & permeabilized with triton X-100, and blocked with BSA/Goat serum blocking solution. Primary phospho-Akt and phospho-ERK antibodies are added and plates are incubated overnight at 4° C. Plates are rinsed with Tween-20 wash buffer and secondary antibody (Goat anti-rabbit, Thermofisher) is added. After 2 hours, plates are rinsed in Tween-20 wash buffer, and then PBS. Plates are imaged on the Celigo (Nexcelom) and cellular fluorescence is quantitated. Full inhibition of phospho-Akt is achieved with 1 uM BEZ235 (Sellekchem), while full inhibition of phospho-ERK is achieved with 1 uM MEK Inhibitor II Calbiochem). EC50 values are calculated using Graphpad Prism.

The subject of test [3] is phospho-ERK in Panc1 (G12D). The experiment in a line: In-Cell Western phospho-ERK, Panc1. To be noted: Homo sapiens, PANC-1, 1 h; Panc1, one hour treatment; read-out: In-Cell Western Panc1 (G12D) Erk (P). How it is done: as §3, §4
Test [4] concerns Ishikawa (K-Ras wild type cell line). The experiment in a line: Viability assay (CellTiterBlue, 72 hr) Ishikawa. As to conditions: Homo sapiens, GI50, CellTiterBlue. As to the method:
as §1, §2

Test [5] deals with phospho-Akt in Panc10.05 (G12D). The experiment in a line: In-Cell Western phospho-Akt, Panc10.05. To be noted: Homo sapiens, Panc1005, 1 h; Panc10.05, one hour treatment; read-out: In-Cell Western Panc10.05 (G12D) Akt (P). As to the method: as §3, §4
Test [6] has as its system HCT116-G31D. Put plainly: Viability assay (CellTiterBlue, 72 hr) HCT116. As to conditions: Homo sapiens, HCT-116, GI50, CellTiterBlue, read-out: 72 hr Cell Viability HCT116 (G13D). How it is done: as §1, §2
Test [7] concerns the target T1, K-Ras G12D (Homo sapiens, UniProt P01116, G12D).
T1 construct: expressed in transfected cells; host or cells: 293H cells
Put plainly: G-LISA Ras activation, 293H cells transfected with G12D mutant. As to conditions: compound 1 hour. As to the method:
(§5) 293H cells were seeded in 6-wells at 0.6×10^6 cells per well and transfected next day with 5 μg of Ras wild-type, or G12C, G12D or G12V mutant DNA plasmid vector using transfection reagent Lipofectamine 3000. Next day cells were treated with 3.125-25 μM of Ras compounds for 1 hour. Wild-type transfected cells were subsequently treated with 100 ng/ml EGF for 2 minutes. Cells were washed once in ice-cold PBS, lysed in complete lysis buffer on ice, and processed by G-LISA according to Cytoskeleton protocol.

Test [8] deals with phospho-ERK in Panc10.05 (G12D). Put plainly: In-Cell Western phospho-ERK, Panc10.05. To be noted: Homo sapiens, Panc1005, 1 h; Panc10.05, one hour treatment; read-out: In-Cell Western Panc10.05 (G12D) Erk (P). As to the method: as §3, §4
For test [9], the system named is Panc10.05-G12D. Put plainly: Viability assay (CellTiterBlue, 72 hr) Panc10.05. As to conditions: Homo sapiens, Panc1005, GI50, CellTiterBlue, read-out: 72 hr Cell Viability Panc10.05 (G12D). As to the method:
as §1, §2

The test system of test [10] is U87-MG (K-Ras wild type cell line). Put plainly: Viability assay (CellTiterBlue, 72 hr) U87-MG. As to conditions: Homo sapiens, U-87 MG, GI50, CellTiterBlue, U87-MG K-Ras wild-type. How it is done: as §1, §2
Test [11] has as its system HCC827 (K-Ras wild type cell line). Put plainly: Viability assay (CellTiterBlue, 72 hr) HCC827. As to conditions: Homo sapiens, GI50, CellTiterBlue. As to the method:
as §1, §2

Test [12] addresses T2, wild type K-Ras (Homo sapiens, UniProt P01116).
T2 construct: expressed in transfected cells; host or cells: 293H cells
Put plainly: G-LISA Ras activation, 293H cells transfected with Ras wild-type, EGF stimulated. As to conditions: compound 1 hour, then 100 ng/ml EGF 2 minutes. As to the method: as §5

Where two headings read alike, the source gives them in different places.

T2 sequence (P01116 whole entry): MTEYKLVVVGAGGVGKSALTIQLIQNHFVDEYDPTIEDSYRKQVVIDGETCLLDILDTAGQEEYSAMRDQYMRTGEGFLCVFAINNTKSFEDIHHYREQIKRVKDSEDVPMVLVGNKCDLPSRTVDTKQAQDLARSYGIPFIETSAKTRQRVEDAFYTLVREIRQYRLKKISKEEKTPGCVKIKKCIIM
T1 sequence (P01116 whole entry G12D): as the sequence (P01116 whole entry) above, with G12D counted along it

For `Cc1nc(CN)sc1C(=O)Nc1nc(-c2ccc3c(c2)CCC(=O)N3)cs1` [Compound 147, 2-(aminomethyl)-4-methyl-N-(4-(2-oxo-1,2,3,4-tetrahydroquinolin-6-yl)thiazol-2-yl)thiazole-5-carboxamide], the IC50 in [1] (Panc1 K-Ras G12D) is 17 µM; in [4] (Ishikawa K-Ras wild-type), > 25 µM; in test [6] (HCT116 K-Ras G13D) it was > 25 µM; in test [7], > 25 µM; in test [9] (Panc10.05 K-Ras G12D), 12 µM. Moreover, the EC50 in test [2] is > 25 µM; in [3] it was 12 µM; in [5], > 25 µM; in test [8] it was 14 µM.

Take `Cc1nc(C)c(C(=O)Nc2nc(-c3ccc4c(c3)CCC(=O)N4CC3CCCN(C(=O)OC(C)(C)C)C3)cs2)o1` (centres unmarked) [Compound 86, tert-butyl 3-((6-(2-(2,4-dimethyloxazole-5-carboxamido)thiazol-4-yl)-2-oxo-3,4-dihydroquinolin-1(2H)-yl)methyl)piperidine-1-carboxylate]: the IC50 in test [1] (Panc1 K-Ras G12D) came out at 5 µM; in test [10], 2 µM; in test [11] (HCC827 K-Ras wild-type), 2 µM; in test [6] (HCT116 K-Ras G13D), 2 µM; in [12], 16.7 µM; in test [7], 6.1 µM. Moreover, the IC50 in [9] (Panc10.05 K-Ras G12D) was 5 µM.

As to `Cc1nc(C)c(C(=O)Nc2nc(-c3ccc4c(c3)CCC(=O)N4)cs2)o1` [Compound 4, 2,4-dimethyl-N-(4-(2-oxo-1,2,3,4-tetrahydroquinolin-6-yl)thiazol-2-yl)oxazole-5-carboxamide], the values for the IC50 in test [12] and in test [7] were 25.1 µM and 10.9 µM, respectively.

For `Cc1nc(C2CCOC2)sc1C(=O)Nc1nc(-c2ccc3c(c2)CCC(=O)N3Cc2cccnc2)cs1` (centres unmarked) [Compound 84, 4-methyl-N-(4-(2-oxo-1-(pyridin-3-ylmethyl)-1,2,3,4-tetrahydroquinolin-6-yl)thiazol-2-yl)-2-(tetrahydrofuran-3-yl)thiazole-5-carboxamide], the IC50 in test [1] (Panc1 K-Ras G12D) turned out to be 7 µM; in [10] it was 4 µM; in [11] (HCC827 K-Ras wild-type), 3 µM; in [6] (HCT116 K-Ras G13D), 4 µM; in test [12] it was 19.9 µM; in [7], 4.9 µM. Moreover, in [9] (Panc10.05 K-Ras G12D), the IC50 stood at 7 µM.

Consider `Cc1nc(C)c(C(=O)Nc2nc(-c3ccc4c(c3)CCC(=O)N4Cc3cccc(N)c3)cs2)o1` [Compound 90, N-(4-(1-(3-aminobenzyl)-2-oxo-1,2,3,4-tetrahydroquinolin-6-yl)thiazol-2-yl)-2,4-dimethyloxazole-5-carboxamide], for which the IC50 in [1] (Panc1 K-Ras G12D) is 10 µM; in test [10], 4 µM; in [11] (HCC827 K-Ras wild-type) it was 4 µM; in [6] (HCT116 K-Ras G13D), 3 µM; in [12], 16.6 µM; in [7], 14.2 µM. Moreover, the IC50 in [9] (Panc10.05 K-Ras G12D) is 8 µM.

As for `Cc1ncccc1C(=O)Nc1nc(-c2ccc3c(c2)CCC(=O)N3)cs1` [Compound 17, 2-methyl-N-(4-(2-oxo-1,2,3,4-tetrahydroquinolin-6-yl)thiazol-2-yl)nicotinamide], the IC50 was 7 µM in test [1] (Panc1 K-Ras G12D); > 25 µM in test [11] (HCC827 K-Ras wild-type); > 25 µM in test [4] (Ishikawa K-Ras wild-type); > 25 µM in test [6] (HCT116 K-Ras G13D); 4 µM in [9] (Panc10.05 K-Ras G12D). Further, the EC50 in [2] was > 25 µM; in test [3] it was > 25 µM; in test [5], 23 µM; in [8], > 25 µM.

On to `Cc1nc(C2CCOC2)oc1C(=O)Nc1nc(-c2ccc3c(c2)CCC(=O)N3Cc2cccnc2)cs1` (centres unmarked) [Compound 85, 4-methyl-N-(4-(2-oxo-1-(pyridin-3-ylmethyl)-1,2,3,4-tetrahydroquinolin-6-yl)thiazol-2-yl)-2-(tetrahydrofuran-3-yl)oxazole-5-carboxamide], for which the IC50 in test [1] (Panc1 K-Ras G12D) is 8 µM; in test [10] it was 5 µM; in [11] (HCC827 K-Ras wild-type), 5 µM; in test [6] (HCT116 K-Ras G13D), 4 µM; in test [12], 23.4 µM; in test [7], 7.6 µM. In addition, in test [9] (Panc10.05 K-Ras G12D), the IC50 came to 6 µM.

Take `Cc1nc(C)c(C(=O)Nc2nc(-c3ccc4c(c3)CCC(=O)N4)cs2)s1` [Compound 1, 2,4-dimethyl-N-(4-(2-oxo-1,2,3,4-tetrahydroquinolin-6-yl)thiazol-2-yl)thiazole-5-carboxamide]: the IC50 in [12] was 3.8 µM; in [7] it was 9.3 µM.

For `Cc1cn(C)nc1C(=O)Nc1nc(-c2ccc3c(c2)CCC(=O)N3)cs1` [Compound 23, 1,4-dimethyl-N-(4-(2-oxo-1,2,3,4-tetrahydroquinolin-6-yl)thiazol-2-yl)-1H-pyrazole-3-carboxamide], the IC50 in [1] (Panc1 K-Ras G12D) is > 25 µM; in test [11] (HCC827 K-Ras wild-type), > 25 µM; in test [4] (Ishikawa K-Ras wild-type) it was > 25 µM; in [6] (HCT116 K-Ras G13D) it was > 25 µM; in [9] (Panc10.05 K-Ras G12D) it was 2 µM. Further, the EC50 in test [2], in [3], in test [5] and in test [8] was > 25 µM throughout.

On to `Cc1nc(C(=O)Nc2nc(-c3ccc4c(c3)CCC(=O)N4)cs2)c(C)o1` [Compound 9, 2,5-dimethyl-N-(4-(2-oxo-1,2,3,4-tetrahydroquinolin-6-yl)thiazol-2-yl)oxazole-4-carboxamide], for which the IC50 in test [1] (Panc1 K-Ras G12D), in [11] (HCC827 K-Ras wild-type), in [4] (Ishikawa K-Ras wild-type), in test [6] (HCT116 K-Ras G13D) and in test [9] (Panc10.05 K-Ras G12D) was > 25 µM in each case. Besides, the EC50 in test [2], in test [3], in test [5] and in test [8] was > 25 µM each time.

Take `Cc1ncc(C(=O)Nc2nc(-c3ccc4c(c3)CCC(=O)N4)cs2)c(C)n1` [Compound 148, 2,4-dimethyl-N-(4-(2-oxo-1,2,3,4-tetrahydroquinolin-6-yl)thiazol-2-yl)pyrimidine-5-carboxamide]: the IC50 in test [1] (Panc1 cells (K-Ras G12D)) was 4 µM; in test [11] (HCC827 cells (K-Ras wild-type)), 11 µM; in test [4] (Ishikawa cells (K-Ras wild-type)), 18 µM; in test [6] (HCT116 cells (K-Ras G13D)), > 25 µM; in [9] (Panc10.05 cells (K-Ras G12D)), 2 µM. For the same molecule, the EC50 in [2], in test [3], in test [5] and in test [8] was > 25 µM throughout.
